Data set [1] can be described thus: Chemical stability in PBS buffer at pH 6.8 assessed as compound hydrolysis at 20 mM measured after 7 hrs by RP-HPLC analysis. The format is physicochemical. The note with it: read-out: Drug degradation.
The nature of data set [2]: Chemical stability in PBS buffer at pH 4.8 assessed as compound hydrolysis at 20 mM measured after 7 hrs by RP-HPLC analysis. The format is physicochemical. Conditions: read-out: Drug degradation.
Data set [3] in a line: Chemical stability in human serum assessed as compound hydrolysis at 20 mM measured upto 8 hrs by RP-HPLC analysis. The format is physicochemical, cell-free. Conditions: 20000 µM.
A short description of data set [4]: Chemical stability in PBS buffer at pH 11.1 assessed as compound hydrolysis at 20 mM measured upto 8 hrs by RP-HPLC analysis. Conditions: pH 11.1, 8 h, 20000 µM. The data set is classed as physicochemical.

As to `CCN(CC)CC.O=c1[nH]c(OP(=O)(O)Oc2ccccc2)nc2c1ncn2[C@@H]1O[C@H](CO)[C@@H](O)[C@H]1O`, the results for the degraded at 7 h, 20000 µM in data set [1] and in data set [2] were 40% and 50%, respectively. In addition, the results for the Stability result in data set [3] and in data set [4] were “Unstable” and “Stable”, respectively.
